For 14 molecules, IC50 results are on record in US20250215030A1, “STAT MODULATORS AND USES THEREOF” (Recludix Pharma, Inc., priority 2022, published 2025).

Assay [1] deals with T1, Recombinant STAT6 protein (STAT6(W123-T658)) (Homo sapiens, UniProt P42226).
T1 construct: STAT6(W123-T658)
T1 sequence (P42226 123-658): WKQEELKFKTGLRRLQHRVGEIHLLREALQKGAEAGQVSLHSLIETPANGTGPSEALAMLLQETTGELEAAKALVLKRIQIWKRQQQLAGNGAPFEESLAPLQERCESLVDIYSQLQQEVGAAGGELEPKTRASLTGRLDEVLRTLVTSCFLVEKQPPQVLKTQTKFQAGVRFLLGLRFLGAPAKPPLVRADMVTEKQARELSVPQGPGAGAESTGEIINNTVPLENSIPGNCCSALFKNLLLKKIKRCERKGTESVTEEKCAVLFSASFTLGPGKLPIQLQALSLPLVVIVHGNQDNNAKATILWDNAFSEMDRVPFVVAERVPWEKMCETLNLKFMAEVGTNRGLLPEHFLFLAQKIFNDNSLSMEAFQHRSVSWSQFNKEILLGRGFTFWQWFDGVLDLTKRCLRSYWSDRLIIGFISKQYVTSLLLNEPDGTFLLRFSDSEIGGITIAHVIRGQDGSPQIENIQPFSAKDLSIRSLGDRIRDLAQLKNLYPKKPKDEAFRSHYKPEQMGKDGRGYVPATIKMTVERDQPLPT
Briefly: STAT6 Fluorescence Polarization (FP) Assay. It is filed as binding. As to conditions: STAT6(W123-T658) 250 nM, probe 5-FAM-ApYKPFQDLI-NH2 2 nM, 45-minute incubation. As to the method:
STAT6 Fluorescence Polarization (FP) Assay
An FP assay was developed to determine IC50 values for test substances. Recombinant STAT6 protein (STAT6(W123-T658)) at 250 nM was combined with a fluorescently labeled, phosphotyrosine peptide probe (5-FAM-ApYKPFQDLI-NH2) at 2 nM in FP buffer (10 mM HEPES pH 7.4, 50 mM NaCl, 1 mM EDTA, 0.05% Tween 20, 2 mM DTT). 50 μL of STAT6-probe mixture was added to serial diluted compounds in black, 96-well plates (Greiner BioOne 655076) to a final concentration of 1% DMSO. Reaction components were mixed, and FP was measured after 45-minute incubation at room temperature using a Tecan Spark multimode plate reader. FP signal (mP) was plotted against the log concentration of the test substances and IC50 values were calculated by nonlinear regression analysis using GraphPad Prism software. For STAT6 FP assay, A=≤300 nM; B=>300-3000 nM; C=>3-30 μM; and D=>30 μM.
Background: In fluorescence polarisation assays a small probe gives low polarisation when free and higher when bound to something large.

Assay [2] concerns the target T2, Recombinant STAT3 protein (STAT3(G127-I722)) (Homo sapiens, UniProt P40763).
T2 construct: STAT3(G127-I722)
Briefly: STAT3 Fluorescence Polarization (FP) Assay. It is filed as binding. As to conditions: STAT3(G127-I722) 25 nM, probe 5-FAM-GpYLPQTV-NH2 2 nM, 45-minute incubation. As to the method: STAT3 Fluorescence Polarization (FP) Assay
An FP assay was developed to determine IC50 values for test substances. Recombinant STAT3 protein (STAT3(G127-I722)) at 25 nM was combined with a fluorescently labeled, phosphotyrosine peptide probe (5-FAM-GpYLPQTV-NH2) at 2 nM in FP buffer (10 mM HEPES pH 7.4, 50 mM NaCl, 1 mM EDTA, 0.05% Tween 20, 2 mM DTT). 50 μL of STAT3-probe mixture was added to serial diluted compounds in black, 96-well plates (Greiner BioOne 655076) to a final concentration of 1% DMSO. Reaction components were mixed, and FP was measured after 45-minute incubation at room temperature using a Tecan Spark multimode plate reader. FP signal (mP) was plotted against the log concentration of the test substances and IC50 values were calculated by nonlinear regression analysis using GraphPad Prism software. For STAT3 FP assay, A=≤100 nM; B=>100-1000 nM; C=>1-10 μM; and D=>10 μM.

T2 sequence (P40763 127-722, species assumed): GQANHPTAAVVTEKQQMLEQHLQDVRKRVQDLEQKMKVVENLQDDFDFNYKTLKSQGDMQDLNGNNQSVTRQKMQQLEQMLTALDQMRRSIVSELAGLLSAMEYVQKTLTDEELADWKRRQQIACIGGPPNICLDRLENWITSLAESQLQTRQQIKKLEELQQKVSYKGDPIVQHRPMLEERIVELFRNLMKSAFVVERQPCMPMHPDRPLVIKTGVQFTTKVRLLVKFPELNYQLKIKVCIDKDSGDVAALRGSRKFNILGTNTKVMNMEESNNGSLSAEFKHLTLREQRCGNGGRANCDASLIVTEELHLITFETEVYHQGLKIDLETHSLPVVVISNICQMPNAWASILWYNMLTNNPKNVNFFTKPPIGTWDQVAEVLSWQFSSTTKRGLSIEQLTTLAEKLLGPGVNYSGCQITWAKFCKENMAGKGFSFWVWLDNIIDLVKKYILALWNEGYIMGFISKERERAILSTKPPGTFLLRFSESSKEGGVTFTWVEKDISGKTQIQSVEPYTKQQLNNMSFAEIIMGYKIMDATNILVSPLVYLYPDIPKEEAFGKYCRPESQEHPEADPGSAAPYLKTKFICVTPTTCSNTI

With `O=C(N[C@H]1C[C@@H]2C[C@@H]2C[C@H]2CC[C@@H](C(=O)N3CC[C@@H](N4CCOCC4)C3)N2C1=O)c1cc2cc(C(F)(F)P(=O)(O)O)ccc2s1` [Compound 16, (difluoro(2-(((3S,6S,7aS,8aR,9aR)-3-((R)-3-morpholinopyrrolidine-1-carbonyl)-5-oxodecahydro-1H-cyclopropa[d]pyrrolo[1,2-a]azocin-6-yl)carbamoyl)benzo[b]thiophen-5-yl)methyl)phosphonic acid], the IC50 in assay [1] was in the range of 3 to 30 µM; in assay [2], 0.1 to 1 µM.

For `O=C(N[C@H]1C[C@@H]2C[C@@H]2C[C@H]2CC[C@@H](C(=O)N3CC[C@H](N4CCOCC4)C3)N2C1=O)c1cc2cc(C(F)(F)P(=O)(O)O)ccc2s1` [Compound 17, (difluoro(2-(((3S,6S,7aS,8aR,9aR)-3-((S)-3-morpholinopyrrolidine-1-carbonyl)-5-oxodecahydro-1H-cyclopropa[d]pyrrolo[1,2-a]azocin-6-yl)carbamoyl)benzo[b]thiophen-5-yl)methyl)phosphonic acid], the IC50 fell in the range of 3 to 30 µM in assay [1] and 0.1 to 1 µM in assay [2].

In the case of `O=C(N[C@H]1C[C@@H]2C[C@@H]2C[C@H]2CC[C@@H](C(=O)N3CC(C(=O)N4CCOCC4)C3)N2C1=O)c1cc2cc(C(F)P(=O)(O)O)ccc2s1` (stereo partly drawn) [Compound 18, (fluoro(2-(((3S,6S,7aS,8aR,9aR)-3-(3-(morpholine-4-carbonyl)azetidine-1-carbonyl)-5-oxodecahydro-1H-cyclopropa[d]pyrrolo[1,2-a]azocin-6-yl)carbamoyl)benzo[b]thiophen-5-yl)methyl)phosphonic acid], the IC50 in assay [1] was 3 to 30 µM; in assay [2], below 0.1 µM.

Consider `C[C@@H]1[C@@H](n2ccnc2)CN1C(=O)[C@@H]1CC[C@@H]2C[C@H]3C[C@H]3C[C@H](NC(=O)c3cc4cc(C(F)(F)P(=O)(O)O)ccc4s3)C(=O)N21` [Compound 19, ((2-(((3S,6S,7aS,8aR,9aR)-3-((2R,3S)-3-(1H-imidazol-1-yl)-2-methylazetidine-1-carbonyl)-5-oxodecahydro-1H-cyclopropa[d]pyrrolo[1,2-a]azocin-6-yl)carbamoyl)benzo[b]thiophen-5-yl)difluoromethyl)phosphonic acid], for which the IC50 in assay [1] is 3 to 30 µM; in assay [2], below 0.1 µM.

`O=C(NC1C[C@@H]2C[C@@H]2C[C@H]2CC[C@@H](C(=O)N3CC(C(=O)N4CCOCC4)C3)N2C1=O)c1cc2cc(CP(=O)(O)O)ccc2s1` (stereo partly drawn) [Compound 20, ((2-(((3S,7aS,8aR,9aR)-3-(3-(morpholine-4-carbonyl)azetidine-1-carbonyl)-5-oxodecahydro-1H-cyclopropa[d]pyrrolo[1,2-a]azocin-6-yl)carbamoyl)benzo[b]thiophen-5-yl)methyl)phosphonic acid]: the IC50 in assay [1] was above 30 µM; in assay [2], 1 to 10 µM.

As for `O=C(N[C@H]1C[C@H]2C[C@H]2C[C@H]2CC[C@@H](C(=O)N3CC(c4cccnc4)C3)N2C1=O)c1cc2cc([C@H](F)P(=O)(O)O)ccc2s1` [Compound 21, ((R)-fluoro(2-(((3S,6S,7aR,8aS,9aR)-5-oxo-3-(3-(pyridin-3-yl)azetidine-1-carbonyl)decahydro-1H-cyclopropa[d]pyrrolo[1,2-a]azocin-6-yl)carbamoyl)benzo[b]thiophen-5-yl)methyl)phosphonic acid], the IC50 in assay [1] is 3 to 30 µM; in assay [2], below 0.1 µM.

As for `O=C(N[C@H]1C[C@H]2C[C@H]2C[C@H]2CC[C@@H](C(=O)N3CC(c4cccnc4)C3)N2C1=O)c1cc2cc(CP(=O)(O)O)ccc2s1` [Compound 22, ((2-(((3S,6S,7aR,8aS,9aR)-5-oxo-3-(3-(pyridin-3-yl)azetidine-1-carbonyl)decahydro-1H-cyclopropa[d]pyrrolo[1,2-a]azocin-6-yl)carbamoyl)benzo[b]thiophen-5-yl)methyl)phosphonic acid], the results for the IC50 in assay [1] and in assay [2] were above 30 µM and 0.1 to 1 µM, respectively.

In the case of `O=C(N[C@H]1C[C@H]2C[C@H]2C[C@H]2CC[C@@H](C(=O)N3CC(c4ccccn4)C3)N2C1=O)c1cc2cc(CP(=O)(O)O)ccc2s1` [Compound 23, ((2-(((3S,6S,7aR,8aS,9aR)-5-oxo-3-(3-(pyridin-2-yl)azetidine-1-carbonyl)decahydro-1H-cyclopropa[d]pyrrolo[1,2-a]azocin-6-yl)carbamoyl)benzo[b]thiophen-5-yl)methyl)phosphonic acid], the half-maximal inhibitory concentration (IC50) in assay [1] was above 30 µM; in assay [2], 0.1 to 1 µM.

Take `O=C(N[C@H]1C[C@@H]2C[C@@H]2C[C@H]2CC[C@@H](C(=O)N3CC(n4ccnc4)C3)N2C1=O)c1cc2cc(CP(=O)(O)O)ccc2s1` [Compound 24, ((2-(((3S,6S,7aS,8aR,9aR)-3-(3-(1H-imidazol-1-yl)azetidine-1-carbonyl)-5-oxodecahydro-1H-cyclopropa[d]pyrrolo[1,2-a]azocin-6-yl)carbamoyl)benzo[b]thiophen-5-yl)methyl)phosphonic acid]: the IC50 in assay [1] is above 30 µM; in assay [2], 0.1 to 1 µM.

With `O=C(N[C@H]1C[C@H]2C[C@H]2C[C@H]2CC[C@@H](C(=O)N3CC(n4ccnc4)C3)N2C1=O)c1cc2cc(CP(=O)(O)O)ccc2s1` [Compound 25, ((2-(((3S,6S,7aR,8aS,9aR)-3-(3-(1H-imidazol-1-yl)azetidine-1-carbonyl)-5-oxodecahydro-1H-cyclopropa[d]pyrrolo[1,2-a]azocin-6-yl)carbamoyl)benzo[b]thiophen-5-yl)methyl)phosphonic acid], the IC50 in assay [1] was above 30 µM; in assay [2] it was 0.1 to 1 µM.

As to `NC(=O)Cc1cc(-c2ccccc2)ccc1NC(=O)[C@@H]1CC[C@@H]2C[C@H]3C[C@H]3C[C@H](NC(=O)c3cc4cc(C(F)(F)P(=O)(O)O)ccc4s3)C(=O)N21` [Compound 26, ((2-(((3S,6S,7aS,8aR,9aR)-3-((3-(2-amino-2-oxoethyl)-[1,1′-biphenyl]-4-yl)carbamoyl)-5-oxodecahydro-1H-cyclopropa[d]pyrrolo[1,2-a]azocin-6-yl)carbamoyl)benzo[b]thiophen-5-yl)difluoromethyl)phosphonic acid], the half-maximal inhibitory concentration (IC50) in assay [1] was 0.3 to 3 µM; in assay [2], below 0.1 µM.

As to `COC1(c2nccn2C)CN(C(=O)[C@@H]2CC[C@@H]3C[C@@H]4[C@H](C[C@H](NC(=O)c5cc6cc(C(F)(F)P(=O)(O)O)ccc6s5)C(=O)N32)C4(F)F)C1` [Compound 29, ((2-(((3S,6S,7aS,8aR,9aR)-8,8-difluoro-3-(3-methoxy-3-(1-methyl-1H-imidazol-2-yl)azetidine-1-carbonyl)-5-oxodecahydro-1H-cyclopropa[d]pyrrolo[1,2-a]azocin-6-yl)carbamoyl)benzo[b]thiophen-5-yl)difluoromethyl)phosphonic acid], the IC50 in assay [1] fell in the range of 3 to 30 µM; in assay [2] it was 0.1 to 1 µM.

Turning to `O=C(N[C@H]1C[C@H]2[C@@H](C[C@H]3CC[C@@H](C(=O)N4CC(C(=O)N5CCOCC5)C4)N3C1=O)C2(F)F)c1cc2cc(C(F)(F)P(=O)(O)O)ccc2s1` [Compound 30, ((2-(((3S,6S,7aS,8aR,9aR)-8,8-difluoro-3-(3-(morpholine-4-carbonyl)azetidine-1-carbonyl)-5-oxodecahydro-1H-cyclopropa[d]pyrrolo[1,2-a]azocin-6-yl)carbamoyl)benzo[b]thiophen-5-yl)difluoromethyl)phosphonic acid], the IC50 was 3 to 30 µM in assay [1] and below 0.1 µM in assay [2].

For `O=C(N[C@H]1C[C@H]2[C@@H](C[C@H]3CC[C@@H](C(=O)N4CC(c5cccnc5)C4)N3C1=O)C2(F)F)c1cc2cc(C(F)(F)P(=O)(O)O)ccc2s1` [Compound 31, ((2-(((3S,6S,7aS,8aR,9aR)-8,8-difluoro-5-oxo-3-(3-(pyridin-3-yl)azetidine-1-carbonyl)decahydro-1H-cyclopropa[d]pyrrolo[1,2-a]azocin-6-yl)carbamoyl)benzo[b]thiophen-5-yl)difluoromethyl)phosphonic acid], the IC50 in assay [1] is 3 to 30 µM; in assay [2] it was below 0.1 µM.

By IC50 is commonly meant the midpoint of a concentration-inhibition curve.
